Several values for one entry are separate records, joined by “and”; a condition that tells them apart may be missing. Equal entries are not always repeated.
What was measured:
MCF-7 cells = test: MCF-7 cell proliferation, CTG reagent, 6-day treatment, single agents and combination (CompuSyn synergy analysis); format: cell-based
Protocol: The effect of 6-day compound treatment on cell proliferation was measured using CTG reagent.

Z-138 cells = test: Z-138 cell proliferation, CTG reagent, 3-day treatment, single agents and combination (CompuSyn synergy analysis); format: cell-based; details: for % Inhibition in proliferation: 3 days
Protocol: Z-138 cells were treated with serial dilutions of Compound-44A (CDK7 inhibitor), serial dilutions of venetoclax individually and in combination for 3 days. The effect of 3-day compound treatment on cell proliferation was measured using CTG reagent. Percentage inhibition of cell proliferation in individual (Compound-44A, venetoclax) and combination treatments (Compound-44A+venetoclax) were analyzed using CompuSyn software to assess synergy.

C[C@]12CC[C@@H]3c4ccc(O)cc4C[C@@H](CCCCCCCCC[S+]([O-])CCCC(F)(F)C(F)(F)F)[C@H]3[C@@H]1CC[C@@H]2O (stereo partly shown) [Fulvestrant, fulvestrant]
% Inhibition in proliferation (MCF-7 cells; Fulvestrant 0.000000164 nM + Compound-44A 0.00 nM, 6 days): 2.8% | % Inhibition of proliferation (MCF-7 cells; Fulvestrant 0.000000164 nM, Day-6): 0.6% and 2.7% and 4.9% | % Inhibition in proliferation (MCF-7 cells; Fulvestrant 0.000000819 nM + Compound-44A 0.00 nM, 6 days): 10.4% | % Inhibition in proliferation (MCF-7 cells; Fulvestrant 0.000004096 nM + Compound-44A 0.00 nM, 6 days): 5.0% | % Inhibition of proliferation (MCF-7 cells; Fulvestrant 0.000004096 nM, Day-6): 6.6% and 7.7% and 0.7% | % Inhibition in proliferation (MCF-7 cells; Fulvestrant 0.00002048 nM + Compound-44A 0.00 nM, 6 days): 7.1% | % Inhibition of proliferation (MCF-7 cells; Fulvestrant 0.00002048 nM, Day-6): 7.2% and 5.9% | % Inhibition in proliferation (MCF-7 cells; Fulvestrant 0.0001024 nM + Compound-44A 0.00 nM, 6 days): 0.9% | % Inhibition of proliferation (MCF-7 cells; Fulvestrant 0.0001024 nM, Day-6): 4.2% and −1.2% and −0.1% | % Inhibition in proliferation (MCF-7 cells; Fulvestrant 0.000512 nM + Compound-44A 0.00 nM, 6 days): 7.5% | % Inhibition of proliferation (MCF-7 cells; Fulvestrant 0.000512 nM, Day-6): 3.2% and 7.4% and 11.8% | % Inhibition in proliferation (MCF-7 cells; Fulvestrant 0.00256 nM + Compound-44A 0.00 nM, 6 days): 3.4% | % Inhibition in proliferation (MCF-7 cells; Fulvestrant 0.0128 nM + Compound-44A 0.00 nM, 6 days): 1.5% | % Inhibition in proliferation (MCF-7 cells; Fulvestrant 0.064 nM + Compound-44A 0.00 nM, 6 days): −1.2% | % Inhibition of proliferation (MCF-7 cells; Fulvestrant 0.064 nM, Day-6): 3.9% and −2.5% and −5% | % Inhibition in proliferation (MCF-7 cells; Fulvestrant 0.32 nM + Compound-44A 0.00 nM, 6 days): 24.2% | % Inhibition of proliferation (MCF-7 cells; Fulvestrant 0.32 nM, Day-6): 27.7% and 23.3% | % Inhibition in proliferation (MCF-7 cells; Fulvestrant 1.6 nM + Compound-44A 0.00 nM, 6 days): 79.8% | % Inhibition of proliferation (MCF-7 cells; Fulvestrant 1.6 nM, Day-6): 78.6% and 80% | % Inhibition in proliferation (MCF-7 cells; Fulvestrant 8 nM + Compound-44A 0.00 nM, 6 days): 87.5% | % Inhibition of proliferation (MCF-7 cells; Fulvestrant 8 nM, Day-6): 88.4% and 86.3% | % Inhibition in proliferation (MCF-7 cells; Fulvestrant 40 nM + Compound-44A 0.00 nM, 6 days): 86.9% | % Inhibition of proliferation (MCF-7 cells; Fulvestrant 40 nM, Day-6): 86% | % Inhibition in proliferation (MCF-7 cells; Fulvestrant 1000 nM + Compound-44A 0.00 nM, 6 days): 88.7% | % Inhibition of proliferation (MCF-7 cells; Fulvestrant 1000 nM, Day-6): 90.2% | % Inhibition in proliferation (MCF-7 cells; Fulvestrant 3000 nM + Compound-44A 0.00 nM, 6 days): 90.0% | % Inhibition of proliferation (MCF-7 cells; Fulvestrant 3000 nM, Day-6): 90.6% and 89.5% | % Inhibition in proliferation (MCF-7 cells; Fulvestrant 10000 nM + Compound-44A 0.00 nM, 6 days): 95.0% | % Inhibition of proliferation (MCF-7 cells; Fulvestrant 10000 nM, Day-6): 95.7% and 95.1% | inhibition at 20.48 fM (MCF-7 cells; Homo sapiens, MCF7, Fulvestrant 0.00002048 nM, Day-6): 8.1% | inhibition at 0.00032 µM (MCF-7 cells; Homo sapiens, MCF7, Fulvestrant 0.32 nM, Day-6): 21.6% | inhibition at 0.0016 µM (MCF-7 cells; Homo sapiens, MCF7, Fulvestrant 1.6 nM, Day-6): 80.9% | inhibition at 0.008 µM (MCF-7 cells; Homo sapiens, MCF7, Fulvestrant 8 nM, Day-6): 87.8% | inhibition at 0.04 µM (MCF-7 cells; Homo sapiens, MCF7, Fulvestrant 40 nM, Day-6): 85.9% | inhibition at 0.2 µM (MCF-7 cells; Homo sapiens, MCF7, Fulvestrant 200 nM, Day-6): 85.8% | inhibition at 1 µM (MCF-7 cells; Homo sapiens, MCF7, Fulvestrant 1000 nM, Day-6): 88.8% | inhibition at 3 µM (MCF-7 cells; Homo sapiens, MCF7, Fulvestrant 3000 nM, Day-6): 89.9% | inhibition at 10 µM (MCF-7 cells; Homo sapiens, MCF7, Fulvestrant 10000 nM, Day-6): 94.3% | inhibition of proliferation in MCF-7 cells (MCF-7 cells; single agent, serial dilutions, 6 days): dose dependent inhibition of proliferation

CC1(C)CCC(CN2CCN(c3ccc(C(=O)NS(=O)(=O)c4ccc(NCC5CCOCC5)c([N+](=O)[O-])c4)c(Oc4cnc5[nH]ccc5c4)c3)CC2)=C(c2ccc(Cl)cc2)C1 [Venetoclax, venetoclax]
inhibition at 0.004572 µM (Z-138 cells; Homo sapiens, Z-138, Venetoclax 0.004572 μM, Day-3): 7.4% | inhibition at 0.013717 µM (Z-138 cells; Homo sapiens, Z-138, Venetoclax 0.013717 μM, Day-3): 18.9% | inhibition at 0.041152 µM (Z-138 cells; Homo sapiens, Z-138, Venetoclax 0.041152 μM, Day-3): 35.6% | inhibition at 0.123457 µM (Z-138 cells; Homo sapiens, Z-138, Venetoclax 0.123457 μM, Day-3): 49.8% | inhibition at 0.37037 µM (Z-138 cells; Homo sapiens, Z-138, Venetoclax 0.370370 μM, Day-3): 63.8% | inhibition at 1.11111 µM (Z-138 cells; Homo sapiens, Z-138, Venetoclax 1.111111 μM, Day-3): 75.6% | inhibition at 3.33333 µM (Z-138 cells; Homo sapiens, Z-138, Venetoclax 3.333333 μM, Day-3): 90.5% | inhibition at 10 µM (Z-138 cells; Homo sapiens, Z-138, Venetoclax 10.000000 μM, Day-3): 99.7% | inhibition at 30 µM (Z-138 cells; Homo sapiens, Z-138, Venetoclax 30.000000 μM, Day-3): 99.9% | % Inhibition in proliferation (Z-138 cells; Venetoclax 0.000006 μM + Compound-44A 0.0 μM): −3.0% | % Inhibition of proliferation (Z-138 cells; Venetoclax 0.000006 μM, Day-3): 1.6% and −2.7% and −8.2% | % Inhibition in proliferation (Z-138 cells; Venetoclax 0.000019 μM + Compound-44A 0.0 μM): −10.0% | % Inhibition in proliferation (Z-138 cells; Venetoclax 0.000169 μM + Compound-44A 0.0 μM): −9.0% | % Inhibition in proliferation (Z-138 cells; Venetoclax 0.000508 μM + Compound-44A 0.0 μM): −10.0% | % Inhibition in proliferation (Z-138 cells; Venetoclax 0.001524 μM + Compound-44A 0.0 μM): −0.2% | % Inhibition in proliferation (Z-138 cells; Venetoclax 0.004572 μM + Compound-44A 0.0 μM): 8.0% | % Inhibition of proliferation (Z-138 cells; Venetoclax 0.004572 μM, Day-3): 6.3% and 11.2% | % Inhibition in proliferation (Z-138 cells; Venetoclax 0.013717 μM + Compound-44A 0.0 μM): 19.0% | % Inhibition of proliferation (Z-138 cells; Venetoclax 0.013717 μM, Day-3): 19.7% | % Inhibition in proliferation (Z-138 cells; Venetoclax 0.041152 μM + Compound-44A 0.0 μM): 33.0% | % Inhibition of proliferation (Z-138 cells; Venetoclax 0.041152 μM, Day-3): 29.6% and 34.7% | % Inhibition in proliferation (Z-138 cells; Venetoclax 0.123457 μM + Compound-44A 0.0 μM): 53.0% | % Inhibition of proliferation (Z-138 cells; Venetoclax 0.123457 μM, Day-3): 53.8% and 55.1% | % Inhibition in proliferation (Z-138 cells; Venetoclax 0.370370 μM + Compound-44A 0.0 μM): 65.0% | % Inhibition of proliferation (Z-138 cells; Venetoclax 0.370370 μM, Day-3): 65.2% and 66.6% | % Inhibition in proliferation (Z-138 cells; Venetoclax 1.111111 μM + Compound-44A 0.0 μM): 76.0% | % Inhibition of proliferation (Z-138 cells; Venetoclax 1.111111 μM, Day-3): 73.5% and 78.1% | % Inhibition in proliferation (Z-138 cells; Venetoclax 3.333333 μM + Compound-44A 0.0 μM): 92.0% | % Inhibition of proliferation (Z-138 cells; Venetoclax 3.333333 μM, Day-3): 91.6% and 92.6% | % Inhibition in proliferation (Z-138 cells; Venetoclax 10.0 μM + Compound-44A 0.0 μM): 100.0% | % Inhibition of proliferation (Z-138 cells; Venetoclax 10.000000 μM, Day-3): 99.8% and 100% | % Inhibition in proliferation (Z-138 cells; Venetoclax 30.0 μM + Compound-44A 0.0 μM): 100.0% | % Inhibition of proliferation (Z-138 cells; Venetoclax 30.000000 μM, Day-3): 100.1% | % Inhibition in proliferation (Z-138 cells; Venetoclax […] + Compound-44A 0.0 μM): −10.0%

Source: patent US20240277722A1, “CANCER THERAPY USING A COMBINATION OF CDK7 INHIBITOR WITH AN ANTI-CANCER AGENT” (Aurigene Oncology Limited, priority 2021, published 2024)
